Reference: US20060293346A1, “Fungicidal mixtures” (priority 2003, published 2006)

Test system: Plasmopara viticola
Test: Activity against peronospora of grapevines caused by Plasmopara viticola (protective spray of potted vines, cultivar Riesling)
Format: in vivo
Conditions: individual active compound, untreated control 84% infection
Procedure: The active compounds, separately or jointly, were prepared as a stock solution comprising 0.25% by weight of active compound in acetone or DMSO. 1% by weight of the emulsifier Uniperol® EL (wetting agent having emulsifying and dispersant action based on ethoxylated alkylphenols) was added to this solution, and the mixture was diluted with water to the desired concentration.
Use Example—Activity Against peronospora of Gravevines Caused by Plasmopara viticola
Leaves of potted vines of the cultivar “Riesling” were sprayed to runoff point with an aqueous suspension having the concentration of active compound stated below. The next day, the undersides of the leaves were inoculated with an aqueous zoospore suspension of Plasmopara viticola. The grapevines were then initially placed in a water-vapor-saturated chamber at 24° C. for 48 hours and then in a greenhouse at 20-30° C. for 5 days. After this period of time, the plants were again placed in a humid chamber for 16 hours to promote sporangiophore eruption. The extent of the development of the disease on the undersides of the leaves was then determined visually.
The visually determined percentages of infected leaf areas were converted into efficacies in % of the untreated control:
The efficacy (E) is calculated as follows using Abbot's formula: E=(1−α/β)·100 • α corresponds to the fungicidal infection of the treated plants in % and • β corresponds to the fungicidal infection of the untreated (control) plants in %
An efficacy of 0 means that the infection level of the treated plants corresponds to that of the untreated control plants; an efficacy of 100 means that the treated plants were not infected.
The expected efficacies of combinations of active compounds were determined using Colby's formula (Colby, S. R. “Calculating synergistic and antagonistic responses of herbicide combinations”, Weeds, 15, pp. 20-22, 1967) and compared with the observed efficacies.
Colby's Formula: E=x+y−x·y/100 • E expected efficacy, expressed in % of the untreated control, when using the mixture of the active compounds A and B at the concentrations a and b • x efficacy, expressed in % of the untreated control, when using the active compound A at the concentration a • y efficacy, expressed in % of the untreated control, when using the active compound B at the concentration b

[1] = 4 ppm in the spray liquor, vines Riesling

Row | Structure (SMILES) | Efficacy in % of the untreated control [1] [%] | Efficacy in % of the untreated control (1 ppm in the spray liquor (cell prints 161 = 16 and 1)) [%] | Efficacy in % of the untreated control (16 ppm in the spray liquor (cell prints 161 = 16 and 1)) [%]
1 | C[C@H](Nc1c(-c2c(F)cc(F)cc2F)c(Cl)nc2ncnn12)C(F)(F)F [B] | 52 | – | –
2 | Fc1ccc(Oc2ccnc3cc(Cl)cc(Cl)c23)cc1 [II (quinoxyfen), 5,7-dichloro-4-(4-fluorophenoxy)quinoline] | – | 0 | 16
3 | CC1CCN(c2c(-c3c(F)cc(F)cc3F)c(Cl)nc3ncnn23)CC1 [I, 5-chloro-7-(4-methylpiperidin-1-yl)-6-(2,4,6-trifluorophenyl)-[1,2,4]triazolo[1,5-a]pyrimidine] | 52 | – | –
4 | CC1CCN(c2c(-c3c(F)cccc3Cl)c(Cl)nc3ncnn23)CC1 [A] | 16 | – | –
